Laboratory results as given in ChEMBL document CHEMBL1131216, “Anhydrolide macrolides. 2. Synthesis and antibacterial activity of 2,3-anhydro-6-O-methyl 11,12-carbazate erythromycin A analogues” (1998).
Converted amounts (≈) assume the structure as drawn.

How the values were obtained:
Format in all cases: functional
[1] = tested on: Streptococcus pneumoniae; experiment: In vitro antibacterial activity of ATCC 6303 strain of Gram positive bacteria Streptococcus pneumoniae
[2] = tested on: Streptococcus pyogenes; experiment: In vitro antibacterial activity of PIU2584 strain of Gram positive bacteria Streptococcus pyogenes
[3] = tested on: Staphylococcus aureus; experiment: In vitro antibacterial activity of 6538P strain of Gram positive bacteria Staphylococcus aureus
[4] = tested on: Staphylococcus aureus; experiment: In vitro antibacterial activity of A-5278 strain of Gram positive bacteria Staphylococcus aureus
[5] = tested on: Staphylococcus aureus; experiment: In vitro antibacterial activity of A5177 strain of Gram positive bacteria Staphylococcus aureus
[6] = tested on: Haemophilus influenzae; experiment: In vitro antibacterial activity of DILL strain of Gram negative bacteria Haemophilus influenzae
[7] = tested on: Streptococcus pneumoniae; experiment: In vitro antibacterial activity of 5979 strain of Gram positive bacteria Streptococcus pneumoniae
[8] = tested on: Streptococcus pyogenes; experiment: In vitro antibacterial activity of 930 strain of Gram positive bacteria Streptococcus pyogenes
[9] = tested on: Streptococcus pyogenes; experiment: In vitro antibacterial activity of EES61 strain of Gram positive bacteria Streptococcus pyogenes
[10] = tested on: Streptococcus pneumoniae; experiment: In vitro antibacterial activity of 5649 strain of Gram positive bacteria Streptococcus pneumoniae

Row | Compound | MIC [1] [µg/mL] | MIC [2] [µg/mL] | MIC [3] [µg/mL] | MIC [4] [µg/mL] | MIC [5] [µg/mL] | MIC [6] [µg/mL] | MIC [7] [µg/mL] | MIC [8] [µg/mL] | MIC [9] [µg/mL] | MIC [10] [µg/mL]
1 | CC[C@H]1OC(=O)/C(C)=C/[C@H](C)[C@@H](O[C@@H]2O[C@H](C)C[C@H](N(C)C)[C@H]2O)[C@@](C)(OC)C[C@@H](C)C(=O)[C@H](C)[C@H]2N(NCc3ccc(N(C)C)cc3)C(=O)O[C@]12C | 0.125 (≈ 0.168 µM) | 1 (≈ 1.34 µM) | 0.2 (≈ 0.268 µM) | > 100 | 0.2 (≈ 0.268 µM) | 16 (≈ 21.5 µM) | > 128 | 128 (≈ 172 µM) | 0.125 (≈ 0.168 µM) | 1 (≈ 1.34 µM)
2 | CC[C@H]1OC(=O)/C(C)=C/[C@H](C)[C@@H](O[C@@H]2O[C@H](C)C[C@H](N(C)C)[C@H]2O)[C@@](C)(OC)C[C@@H](C)C(=O)[C@H](C)[C@H]2N(NCCCc3cccc(Cl)c3)C(=O)O[C@]12C | 0.25 (≈ 0.327 µM) | 1 (≈ 1.31 µM) | 0.39 (≈ 0.51 µM) | 50 (≈ 65.4 µM) | 0.39 (≈ 0.51 µM) | 32 (≈ 41.9 µM) | 32 (≈ 41.9 µM) | 16 (≈ 20.9 µM) | 0.25 (≈ 0.327 µM) | 2 (≈ 2.62 µM)
3 | CC[C@H]1OC(=O)/C(C)=C/[C@H](C)[C@@H](O[C@@H]2O[C@H](C)C[C@H](N(C)C)[C@H]2O)[C@@](C)(OC)C[C@@H](C)C(=O)[C@H](C)[C@H]2N(NCCCc3ccc(Cl)cc3Cl)C(=O)O[C@]12C | 0.125 (≈ 0.156 µM) | 1 (≈ 1.25 µM) | 0.39 (≈ 0.488 µM) | 25 (≈ 31.3 µM) | 0.39 (≈ 0.488 µM) | 16 (≈ 20 µM) | 8 (≈ 10 µM) | 8 (≈ 10 µM) | 0.06 (≈ 0.0751 µM) | 2 (≈ 2.5 µM)
4 | CC[C@H]1OC(=O)/C(C)=C/[C@H](C)[C@@H](O[C@@H]2O[C@H](C)C[C@H](N(C)C)[C@H]2O)[C@@](C)(OC)C[C@@H](C)C(=O)[C@H](C)[C@H]2N(NCCCc3ccccc3)C(=O)O[C@]12C | 0.125 (≈ 0.171 µM) | 1 (≈ 1.37 µM) | 0.1 (≈ 0.137 µM) | 50 (≈ 68.5 µM) | 0.1 (≈ 0.137 µM) | 16 (≈ 21.9 µM) | 64 (≈ 87.7 µM) | 32 (≈ 43.8 µM) | 0.06 (≈ 0.0822 µM) | 2 (≈ 2.74 µM)
5 | CC[C@H]1OC(=O)/C(C)=C/[C@H](C)[C@@H](O[C@@H]2O[C@H](C)C[C@H](N(C)C)[C@H]2O)[C@@](C)(OC)C[C@@H](C)C(=O)[C@H](C)[C@H]2N(NCc3ccccn3)C(=O)O[C@]12C | 0.06 (≈ 0.0854 µM) | 1 (≈ 1.42 µM) | 0.39 (≈ 0.555 µM) | > 100 | 0.39 (≈ 0.555 µM) | 8 (≈ 11.4 µM) | > 128 | > 128 | 0.06 (≈ 0.0854 µM) | 1 (≈ 1.42 µM)
6 | CC[C@H]1OC(=O)/C(C)=C/[C@H](C)[C@@H](O[C@@H]2O[C@H](C)C[C@H](N(C)C)[C@H]2O)[C@@](C)(OC)C[C@@H](C)C(=O)[C@H](C)[C@H]2N(NCc3ccc(C(F)(F)F)cc3)C(=O)O[C@]12C | 0.06 (≈ 0.0779 µM) | 2 (≈ 2.6 µM) | 0.78 (≈ 1.01 µM) | 100 (≈ 130 µM) | 0.78 (≈ 1.01 µM) | 16 (≈ 20.8 µM) | 16 (≈ 20.8 µM) | 16 (≈ 20.8 µM) | 0.06 (≈ 0.0779 µM) | 2 (≈ 2.6 µM)
7 | CC[C@H]1OC(=O)/C(C)=C/[C@H](C)[C@@H](O[C@@H]2O[C@H](C)C[C@H](N(C)C)[C@H]2O)[C@@](C)(OC)C[C@@H](C)C(=O)[C@H](C)[C@H]2N(NCc3c[nH]c4ccccc34)C(=O)O[C@]12C | 0.125 (≈ 0.169 µM) | 0.5 (≈ 0.675 µM) | 0.39 (≈ 0.526 µM) | > 100 | 0.39 (≈ 0.526 µM) | 8 (≈ 10.8 µM) | > 64 | > 64 | 0.06 (≈ 0.081 µM) | 1 (≈ 1.35 µM)
8 | CC[C@H]1OC(=O)/C(C)=C/[C@H](C)[C@@H](O[C@@H]2O[C@H](C)C[C@H](N(C)C)[C@H]2O)[C@@](C)(OC)C[C@@H](C)C(=O)[C@H](C)[C@H]2N(NCCCn3nc4ccccc4n3)C(=O)O[C@]12C | 0.004 (≈ 0.00519 µM) | 1 (≈ 1.3 µM) | 0.2 (≈ 0.259 µM) | > 100 | 0.2 (≈ 0.259 µM) | 8 (≈ 10.4 µM) | > 128 | 128 (≈ 166 µM) | 0.004 (≈ 0.00519 µM) | 0.5 (≈ 0.649 µM)
9 | CC[C@H]1OC(=O)C(C)C(=O)[C@H](C)[C@@H](O[C@@H]2O[C@H](C)C[C@H](N(C)C)[C@H]2O)[C@@](C)(OC)C[C@@H](C)C(=O)[C@H](C)[C@H]2N(NCCCc3ccnc4ccccc34)C(=O)O[C@]12C (stereo not given in full) | 0.004 (≈ 0.00502 µM) | 0.25 (≈ 0.314 µM) | 0.1 (≈ 0.125 µM) | > 100 | 0.05 (≈ 0.0627 µM) | 1 (≈ 1.25 µM) | 8 (≈ 10 µM) | 2 (≈ 2.51 µM) | 0.008 (≈ 0.01 µM) | 0.5 (≈ 0.627 µM)
10 | CC[C@H]1OC(=O)/C(C)=C/[C@H](C)[C@@H](O[C@@H]2O[C@H](C)C[C@H](N(C)C)[C@H]2O)[C@@](C)(OC)C[C@@H](C)C(=O)[C@H](C)[C@H]2N(NCCCc3cccc([N+](=O)[O-])c3)C(=O)O[C@]12C | 0.004 (≈ 0.00516 µM) | 0.25 (≈ 0.323 µM) | 0.2 (≈ 0.258 µM) | > 100 | 0.2 (≈ 0.258 µM) | 8 (≈ 10.3 µM) | 128 (≈ 165 µM) | 64 (≈ 82.6 µM) | 0.004 (≈ 0.00516 µM) | 0.25 (≈ 0.323 µM)
